Assay results as given in patent US20050118624A1, “Fluorescent probes for ribosomes and method of use” (Cumbre Inc., priority 2003, published 2005).

Columns and labels:
70S Ribosome [1] = assay: Fluorescence polarization titration of probe binding affinity and kinetics; parameters: species or system E. coli; details: for binding affinity compared with Probe 203 / binding kinetics compared with Probe 203: summarized in FIG. 39
70S Ribosome [2] = assay: Fluorescence polarization competition with Probe 203 bound to ribosomes; assay type: binding, E. coli; details: for IC50: compound titrated 400 μM to 1.5 nM, ribosome 150-200% above Kd, read-out: IC50 for competing out Probe 203

| Molecule | binding affinity compared with Probe 203 (70S Ribosome [1]; fluorescence polarization) | binding kinetics compared with Probe 203 (70S Ribosome [1]; fluorescence polarization) | IC50 (70S Ribosome [2]) | other results |
| --- | --- | --- | --- | --- |
| 4″-Bodipy FL-aminoethylcarbamate clarithromycin [Probe 242] | greater affinity | even slower kinetics |  |  |
| 9-(4,4-difluoro-5,7-dimethyl-4-bora-3a,4a-diaza-s-indacene-3-propionyl)-amino-erythromycin [Probe 203] |  |  |  | incubation time to reach binding equilibrium (70S Ribosome [1]; fluorescence polarization read at various time points): greater than a half hour; affinity for ribosomes compared with values reported in the literature for the parent erythromycin (70S Ribosome [1]; fluorescence polarization, ribosome titration 1650 nM to 0.4 nM, buffer with 20% glycerol): slightly reduced affinity |
| 9-benzyloxycarbonylamino-4″-Bodipy FL aminoethylcarbamate erythromycin [Probe 238] | greater affinity | even slower kinetics |  |  |
| O=C(N[C@H](CO)[C@H](O)c1ccc([N+](=O)[O-])cc1)C(Cl)Cl [Chloramphenicol] |  |  | 19 µM |  |
| CC[C@H]1OC(=O)[C@H](C)[C@@H](O[C@H]2C[C@@](C)(OC)[C@@H](O)[C@H](C)O2)[C@H](C)[C@@H](O[C@@H]2O[C@H](C)C[C@H](N(C)C)[C@H]2O)[C@](C)(O)C[C@@H](C)C(=O)[C@H](C)[C@@H](O)[C@]1(C)O [Erythromycin] |  |  | 0.03 µM |  |
| COc1ccc(C[C@H](N)C(=O)N[C@H]2[C@@H](O)[C@H](n3cnc4c(N(C)C)ncnc43)O[C@@H]2CO)cc1 [puromycin] |  |  |  | competition with Probe 203 (70S Ribosome [2]; antibiotic binding to more distant region of the ribosome): did not show competition |
